Columns and labels:
Type in all cases: in vivo
[1] = test system: foxtail, green (green foxtail, Setaria viridis); experiment: Test A preemergence, green foxtail; conditions: 0 to 100 scale
From the text: (§1) Seeds of plant species selected from barnyardgrass (Echinochloa crus-galli), kochia (Kochia scoparia), ragweed (common ragweed, Ambrosia elatior), ryegrass, It. (Italian ryegrass, Lolium multiflorum), foxtail, green (green foxtail, Setaria viridis), and pigweed (Amaranthus retroflexus) were planted into a blend of loam soil and sand and treated preemergence with a directed soil spray using test chemicals formulated in a non-phytotoxic solvent mixture which included a surfactant. At the same time, plants selected from these weed species and also wheat (Triticum aestivum), corn (Zea mays), blackgrass (Alopecurus myosuroides), and galium (catchweed bedstraw, Galium aparine) were planted in pots containing the same blend of loam soil and sand and treated with postemergence applications of test chemicals formulated in the same manner. Plants ranged in height from 2 to 10 cm and were in the one- to two-leaf stage for the postemergence treatment. Treated plants and untreated controls were maintained in a greenhouse for approximately 10 d, after which time all treated plants were compared to untreated controls and visually evaluated for injury. Plant response ratings, summarized in Table A, are based on a 0 to 100 scale where 0 is no effect and 100 is complete control. A dash (-) response means no test result.

kochia (Kochia scoparia) [2] = experiment: Test A postemergence, kochia; conditions: 0 to 100 scale
From the text: as §1

[3] = test system: ryegrass, It. (Italian ryegrass, Lolium multiflorum); experiment: Test A postemergence, Italian ryegrass; conditions: 0 to 100 scale
From the text: as §1

[4] = test system: pigweed (Amaranthus retroflexus); experiment: Test A postemergence, pigweed; conditions: 0 to 100 scale
From the text: as §1

[5] = test system: pigweed (Amaranthus retroflexus); experiment: Test A preemergence, pigweed; conditions: 0 to 100 scale
From the text: as §1

corn (Zea mays) = experiment: Test A postemergence, corn; conditions: 0 to 100 scale
From the text: as §1

[6] = test system: foxtail, green (green foxtail, Setaria viridis); experiment: Test A postemergence, green foxtail; conditions: 0 to 100 scale
From the text: as §1

[7] = test system: barnyardgrass (Echinochloa crus-galli); experiment: Test A preemergence, barnyardgrass; conditions: 0 to 100 scale
From the text: as §1

[8] = test system: ryegrass, It. (Italian ryegrass, Lolium multiflorum); experiment: Test A preemergence, Italian ryegrass; conditions: 0 to 100 scale
From the text: as §1

[9] = test system: wheat (Triticum aestivum); experiment: Test A postemergence, wheat; conditions: 0 to 100 scale
From the text: as §1

[10] = test system: galium (catchweed bedstraw, Galium aparine); experiment: Test A postemergence, galium; conditions: 0 to 100 scale
From the text: as §1

[11] = test system: ragweed (common ragweed, Ambrosia elatior); experiment: Test A postemergence, ragweed; conditions: 0 to 100 scale
From the text: as §1

[12] = test system: blackgrass (Alopecurus myosuroides); experiment: Test A postemergence, blackgrass; conditions: 0 to 100 scale
From the text: as §1

[13] = test system: ragweed (common ragweed, Ambrosia elatior); experiment: Test A preemergence, ragweed; conditions: 0 to 100 scale
From the text: as §1

kochia (Kochia scoparia) [14] = experiment: Test A preemergence, kochia; conditions: 0 to 100 scale
From the text: as §1

[15] = test system: barnyardgrass (Echinochloa crus-galli); experiment: Test A postemergence, barnyardgrass; conditions: 0 to 100 scale
From the text: as §1

[16] = test system: barnyardgrass (Echinochloa crus-galli); experiment: Test B flooded paddy test, barnyardgrass; conditions: Flood, 250 g ai/ha applied to paddy water, 2-leaf stage, 13 to 15 d; scale of 0 to 100 where 0 is no effect and 100 is complete control
Description: (§2) Plant species in the flooded paddy test selected from rice (Oryza sativa), sedge, umbrella (small-flower umbrella sedge, Cyperus difformis), ducksalad (Heteranthera limosa), and barnyardgrass (Echinochloa crus-galli) were grown to the 2-leaf stage for testing. At the time of treatment, test pots were flooded to 3 cm above the soil surface, treated by application of test compounds directly to the paddy water, and then maintained at that water depth for the duration of the test. Treated plants and controls were maintained in a greenhouse for 13 to 15 d, after which time all species were compared to controls and visually evaluated. Plant response ratings, summarized in Table B, are based on a scale of 0 to 100 where 0 is no effect and 100 is complete control. A dash (-) response means no test result.

rice (Oryza sativa) = experiment: Test B flooded paddy test, rice; conditions: Flood, 250 g ai/ha applied to paddy water, 2-leaf stage, 13 to 15 d; scale of 0 to 100 where 0 is no effect and 100 is complete control
Description: as §2

[17] = test system: ducksalad (Heteranthera limosa); experiment: Test B flooded paddy test, ducksalad; conditions: Flood, 250 g ai/ha applied to paddy water, 2-leaf stage, 13 to 15 d; scale of 0 to 100 where 0 is no effect and 100 is complete control
Description: as §2

[18] = test system: sedge, umbrella (small-flower umbrella sedge, Cyperus difformis); experiment: Test B flooded paddy test, umbrella sedge; conditions: Flood, 250 g ai/ha applied to paddy water, 2-leaf stage, 13 to 15 d; scale of 0 to 100 where 0 is no effect and 100 is complete control
Description: as §2

SMILES | Plant response rating, Foxtail, Green ([1]; 125 g ai/ha) | Plant response rating, Barnyardgrass [16] | Plant response rating, Kochia (kochia (Kochia scoparia) [2]; 125 g ai/ha) | Plant response rating, Ryegrass, It. ([3]; 125 g ai/ha) | Plant response rating, Pigweed ([4]; 125 g ai/ha) | Plant response rating, Pigweed ([5]; 125 g ai/ha) | Plant response rating, Rice (rice (Oryza sativa)) | Plant response rating, Corn (corn (Zea mays); 125 g ai/ha) | Plant response rating, Foxtail, Green ([6]; 125 g ai/ha) | Plant response rating, Barnyardgrass ([7]; 125 g ai/ha) | Plant response rating, Ryegrass, It. ([8]; 125 g ai/ha) | Plant response rating, Wheat ([9]; 125 g ai/ha) | Plant response rating, Galium ([10]; 125 g ai/ha) | Plant response rating, Ragweed ([11]; 125 g ai/ha) | Plant response rating, Ducksalad [17] | Plant response rating, Blackgrass ([12]; 125 g ai/ha) | Plant response rating, Ragweed ([13]; 125 g ai/ha) | Plant response rating, Kochia (kochia (Kochia scoparia) [14]; 125 g ai/ha) | Plant response rating, Sedge, Umbrella [18] | Plant response rating, Barnyardgrass ([15]; 125 g ai/ha) | further results
COc1c(C)nn(C)c(=O)c1C1=C(C)CCc2ccccc21 [Compound 1, 4-(3,4-dihydro-2-methyl-1-naphthalenyl)-5-methoxy-2,6-dimethyl-3(2H)-pyridazinone] |  |  |  |  |  |  |  |  |  |  |  |  |  |  |  |  |  |  |  |  | Plant response rating, Foxtail, Green ([1]; 1000 g ai/ha): 70; Plant response rating, Kochia (kochia (Kochia scoparia) [2]; 1000 g ai/ha): 20; Plant response rating, Ryegrass, Italian ([3]; 1000 g ai/ha): 90; Plant response rating, Pigweed ([4]; 1000 g ai/ha): 80; Plant response rating, Pigweed ([5]; 1000 g ai/ha): 60; Plant response rating, Corn (corn (Zea mays); 1000 g ai/ha): 10; Plant response rating, Foxtail, Green ([6]; 1000 g ai/ha): 60; Plant response rating, Barnyardgrass ([7]; 1000 g ai/ha): 80; Plant response rating, Ryegrass, It. ([8]; 1000 g ai/ha): 100; Plant response rating, Wheat ([9]; 1000 g ai/ha): 0; Plant response rating, Galium ([10]; 1000 g ai/ha): 100; Plant response rating, Ragweed ([11]; 1000 g ai/ha): 90; Plant response rating, Blackgrass ([12]; 1000 g ai/ha): 70; Plant response rating, Ragweed ([13]; 1000 g ai/ha): 100; Plant response rating, Kochia (kochia (Kochia scoparia) [14]; 1000 g ai/ha): 70; Plant response rating, Barnyardgrass ([15]; 1000 g ai/ha, 0 no effect, 100 complete control): 60
CC1=C(c2c(O)c(C)nn(C)c2=O)c2ccccc2CC1 [Compound 2, 4-(3,4-dihydro-2-methyl-1-naphthalenyl)-5-hydroxy-2,6-dimethyl-3(2H)-pyridazinone] | 0 | 0 | 80 | 60 | 80 | 0 | 0 | 10 | 10 | 0 | 40 | 0 | 90 | 80 | 0 | 0 | 40 | 0 | 0 | 0 | Plant response rating, Foxtail, Green ([1]; 500 g ai/ha): 0; Plant response rating, Kochia (kochia (Kochia scoparia) [2]; 500 g ai/ha): 90; Plant response rating, Ryegrass, Italian ([3]; 500 g ai/ha): 100; Plant response rating, Pigweed ([4]; 500 g ai/ha): 90; Plant response rating, Pigweed ([5]; 500 g ai/ha): 80; Plant response rating, Corn (corn (Zea mays); 500 g ai/ha): 10; Plant response rating, Foxtail, Green ([6]; 500 g ai/ha): 70; Plant response rating, Barnyardgrass ([7]; 500 g ai/ha): 0; Plant response rating, Ryegrass, It. ([8]; 500 g ai/ha): 50; Plant response rating, Wheat ([9]; 500 g ai/ha): 0; Plant response rating, Galium ([10]; 500 g ai/ha): 100; Plant response rating, Ragweed ([11]; 500 g ai/ha): 90; Plant response rating, Blackgrass ([12]; 500 g ai/ha): 20; Plant response rating, Ragweed ([13]; 500 g ai/ha): 90; Plant response rating, Kochia (kochia (Kochia scoparia) [14]; 500 g ai/ha): 80; Plant response rating, Barnyardgrass ([15]; 500 g ai/ha): 20
CC1=C(c2c(O)c(C)nn(C)c2=O)c2ccccc2OC1 [Compound 3, 5-hydroxy-2,6-dimethyl-4-(3-methyl-2H-1-benzopyran-4-yl)-3(2H)-pyridazinone] | 0 | 0 | 70 | 10 | 80 | 10 | 0 | 0 | 0 | 0 | 0 | 0 |  | 60 | 0 | 0 | 0 | 10 | 50 | 0 | Plant response rating, Foxtail, Green ([1]; 500 g ai/ha): 0; Plant response rating, Kochia (kochia (Kochia scoparia) [2]; 500 g ai/ha): 90; Plant response rating, Ryegrass, Italian ([3]; 500 g ai/ha): 60; Plant response rating, Pigweed ([4]; 500 g ai/ha): 100; Plant response rating, Pigweed ([5]; 500 g ai/ha): 60; Plant response rating, Corn (corn (Zea mays); 500 g ai/ha): 10; Plant response rating, Foxtail, Green ([6]; 500 g ai/ha): 20; Plant response rating, Barnyardgrass ([7]; 500 g ai/ha): 0; Plant response rating, Ryegrass, It. ([8]; 500 g ai/ha): 10; Plant response rating, Wheat ([9]; 500 g ai/ha): 0; Plant response rating, Ragweed ([11]; 500 g ai/ha): 90; Plant response rating, Blackgrass ([12]; 500 g ai/ha): 10; Plant response rating, Ragweed ([13]; 500 g ai/ha): 50; Plant response rating, Kochia (kochia (Kochia scoparia) [14]; 500 g ai/ha): 30; Plant response rating, Barnyardgrass ([15]; 500 g ai/ha): 10
CC1=C(c2c(O)c(C)nn(C)c2=O)c2cc(C)ccc2CC1 [Compound 4] | 0 | 0 | 20 | 20 | 70 | 0 | 0 | 0 | 20 | 0 | 0 | 0 | 70 | 20 | 0 | 0 | 0 | 0 | 0 | 10 | Plant response rating, Foxtail, Green ([1]; 31 g ai/ha): 0; Plant response rating, Kochia (kochia (Kochia scoparia) [2]; 31 g ai/ha): 0; Plant response rating, Ryegrass, It. ([3]; 31 g ai/ha): 0; Plant response rating, Pigweed ([4]; 31 g ai/ha): 50; Plant response rating, Pigweed ([5]; 31 g ai/ha): 0; Plant response rating, Corn (corn (Zea mays); 31 g ai/ha): 0; Plant response rating, Foxtail, Green ([6]; 31 g ai/ha): 10; Plant response rating, Barnyardgrass ([7]; 31 g ai/ha): 0; Plant response rating, Ryegrass, It. ([8]; 31 g ai/ha): 0; Plant response rating, Wheat ([9]; 31 g ai/ha): 0; Plant response rating, Galium ([10]; 31 g ai/ha): 40; Plant response rating, Ragweed ([11]; 31 g ai/ha): 0; Plant response rating, Blackgrass ([12]; 31 g ai/ha): 0; Plant response rating, Ragweed ([13]; 31 g ai/ha): 0; Plant response rating, Kochia (kochia (Kochia scoparia) [14]; 31 g ai/ha): 0; Plant response rating, Barnyardgrass ([15]; 31 g ai/ha): 10
CC(=O)Oc1c(C)nn(C)c(=O)c1C1=C(C)CCc2ccccc21 [Compound 5] | 0 | 0 | 80 | 80 | 100 | 100 | 0 | 20 | 40 | 0 | 70 | 0 | 90 | 80 | 0 | 30 | 80 | 10 | 0 | 30 | Plant response rating, Foxtail, Green ([1]; 31 g ai/ha): 0; Plant response rating, Kochia (kochia (Kochia scoparia) [2]; 31 g ai/ha): 70; Plant response rating, Ryegrass, It. ([3]; 31 g ai/ha): 70; Plant response rating, Pigweed ([4]; 31 g ai/ha): 70; Plant response rating, Pigweed ([5]; 31 g ai/ha): 20; Plant response rating, Corn (corn (Zea mays); 31 g ai/ha): 20; Plant response rating, Foxtail, Green ([6]; 31 g ai/ha): 20; Plant response rating, Barnyardgrass ([7]; 31 g ai/ha): 20; Plant response rating, Ryegrass, It. ([8]; 31 g ai/ha): 40; Plant response rating, Wheat ([9]; 31 g ai/ha): 0; Plant response rating, Galium ([10]; 31 g ai/ha): 90; Plant response rating, Ragweed ([11]; 31 g ai/ha): 30; Plant response rating, Blackgrass ([12]; 31 g ai/ha): 0; Plant response rating, Ragweed ([13]; 31 g ai/ha): 20; Plant response rating, Kochia (kochia (Kochia scoparia) [14]; 31 g ai/ha): 0; Plant response rating, Barnyardgrass ([15]; 31 g ai/ha): 20

Source: patent US11213030B2, “4-(3,4-dihydronaphth-1-yl or 2H-chromen-4-yl)-5-hydroxy-2H-pyradizin-3-ones as herbicides” (FMC Corporation, priority 2017, dated 2022)
